Measured values published in ChEMBL document CHEMBL1155089, “Discovery of an Aurora kinase inhibitor through site-specific dynamic combinatorial chemistry” (Bioorg Med Chem Lett, 2008).

Target: T1, Aurora kinase A (Homo sapiens, UniProt O14965)
T1 sequence (O14965 whole entry): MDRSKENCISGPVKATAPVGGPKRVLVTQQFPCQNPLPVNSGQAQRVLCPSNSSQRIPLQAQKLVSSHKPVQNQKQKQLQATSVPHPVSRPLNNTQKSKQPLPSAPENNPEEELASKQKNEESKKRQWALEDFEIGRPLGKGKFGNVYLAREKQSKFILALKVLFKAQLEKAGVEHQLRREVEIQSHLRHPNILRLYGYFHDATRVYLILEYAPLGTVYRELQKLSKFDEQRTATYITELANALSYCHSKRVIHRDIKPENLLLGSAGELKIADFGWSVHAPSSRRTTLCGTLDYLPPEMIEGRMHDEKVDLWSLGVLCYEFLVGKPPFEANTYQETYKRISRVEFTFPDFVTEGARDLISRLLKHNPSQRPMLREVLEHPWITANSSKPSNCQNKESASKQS
Assay: Inhibition of Aurora kinase A

IC50 | SMILES
> 100 µM | CCCCCCNc1ncnc2nc[nH]c12
17 µM | CCCCNC(=O)c1cccc(NC(=O)CCCCCCNc2cc(N)ncn2)c1
2.9 µM | CCCCNC(=O)c1cccc(NC(=O)CCCCCNc2ncnc3nc[nH]c23)c1
